The results in this text go back to US7754705B2, “Cationic steroid antimicrobial compositions and methods of use” (priority 2006, dated 2010).

Read-outs that look alike come from different tables or passages of the source.

Series [1] deals with vaccinia virus. The class given is cell-based, vaccinia virus; human keratinocytes (HaCaT).
Series [2] has as its system vaccinia virus.
In a further series the test system is vaccinia lipid envelope. The class given is binding, vaccinia virus; keratinocytes.
Series [3] concerns vaccinia virus. Description: microbe, parasite or virus in culture. The conditions noted are these: Orthopoxvirus vaccinia, BSC-1, in Chlorocebus sabaeus, 24 h.

As to `CCCCCCCCNCCC[C@@H](C)[C@H]1CC[C@H]2[C@@H]3[C@H](OCCCN)C[C@@H]4C[C@H](OCCCN)CC[C@]4(C)[C@H]3C[C@H](OCCCN)[C@]12C` [CSA-13], the “activity against vaccinia virus (vaccinia gene expression)” value (“activity against vaccinia virus” below) with vaccinia virus [1] is “most effective”. Besides, the “% Viability” value with vaccinia virus [2] (5 μM) is listed as 37.50%; with vaccinia virus [2] (10 μM), 8.82%; in the series with vaccinia virus [2] (25 μM), 3.31%; in the series with vaccinia virus [2] (50 μM), 0.00%; with vaccinia virus [2] (100 μM), 0.00%.
For the compound `CCCOCCCC(C)C1CCC2C3C(OCCCN)CC4CC(OCCCN)CCC4(C)C3CC(OCCCN)C12C` (stereo not drawn) [CSA-17], the “% Viability” value worked out at 53.18% in the series with vaccinia virus [2] (5 μM); 19.48% in the series on vaccinia virus [2] (10 μM); 3.00% in the series on vaccinia virus [2] (25 μM); 0.00% in the series on vaccinia virus [2] (50 μM); 0.00% in the series with vaccinia virus [2] (100 μM).
On to `CCCCCCCCOCCCC(C)C1CCC2C3C(OCCCN)CC4CC(OCCCN)CCC4(C)C3CC(OCCCN)C12C` (stereo not drawn) [CSA-7], for which the “activity against vaccinia virus” value with vaccinia virus [1] is recorded as “most effective”. Besides, the “concentration at which significant viral killing was observed / compound was effective” value with vaccinia virus [2] came out at 5 µM. The “% Viability” value in the series with vaccinia virus [2] (5 μM) was found to be 0.56%; in the series with vaccinia virus [2] (10 μM), 0.00%; with vaccinia virus [2] (25 μM) it was 0.00%; in the series with vaccinia virus [2] (50 μM) it was 0.00%; in the series on vaccinia virus [2] (100 μM), 0.00%.
Take `CCCCCCCCNCCC[C@@H](C)[C@H]1CC[C@H]2[C@@H]3CC[C@@H]4C[C@H](OCCCN)CC[C@]4(C)[C@H]3C[C@H](OCCCN)[C@]12C` [CSA-46]: the “activity against vaccinia virus” value in the series with vaccinia virus [1] is “most effective”. For the same compound, the “% Viability” value in the series with vaccinia virus [2] (5 μM) is on record as 41.89%; with vaccinia virus [2] (10 μM), 3.77%; with vaccinia virus [2] (25 μM) it was 0.38%; with vaccinia virus [2] (50 μM) it was 0.00%; in the series with vaccinia virus [2] (100 μM), 0.00%.
Consider `CCCCCN(CCCCC)CCCC(C)C1CCC2C3C(OCCCN)CC4CC(OCCCN)CCC4(C)C3CC(OCCCN)C12C.Cl.Cl.Cl.Cl` (stereo not drawn) [CSA-90], for which the “% Viability” value with vaccinia virus [2] (1 μM) is 64.73%; in the series on vaccinia virus [2] (5 μM), 23.67%; in the series with vaccinia virus [2] (10 μM) it was 14.49%; with vaccinia virus [2] (25 μM) it was 7.73%; with vaccinia virus [2] (50 μM), 4.83%; in the series with vaccinia virus [2] (100 μM), 0.48%.
`CC(CCCO)C1CCC2C3C(OCCCN)CC4CC(OCCCN)CCC4(C)C3CC(OCCCN)C12C` (stereo not drawn) [CSA-8]: the “% Viability” value stood at 61.87% in the series with vaccinia virus [2] (5 μM); 28.79% in the series on vaccinia virus [2] (10 μM); 4.67% with vaccinia virus [2] (25 μM); 2.33% in the series on vaccinia virus [2] (50 μM); 1.56% in the series on vaccinia virus [2] (100 μM).
Consider `CC(CCCO)C1CCC2C3C(NC(=O)CCCCCN)CC4CC(NC(=O)CCCCCN)CCC4(C)C3CC(NC(=O)CCCCCN)C12C` (stereo not drawn) [CSA-31], for which, in the series on vaccinia virus [2], the “effectiveness in killing vaccinia virus (in words)” value (“effectiveness” for short) is on record as “little or no detectable activity”. For the same compound, the “% Viability” value in the series on vaccinia virus [2] (5 μM) worked out at 99.24%; with vaccinia virus [2] (10 μM), 99.24%; with vaccinia virus [2] (25 μM) it was 101.52%; in the series on vaccinia virus [2] (50 μM), 102.28%; in the series on vaccinia virus [2] (100 μM), 101.52%.
Consider `CC(CCCNC(=O)CCC(=O)c1ccc2cc(N(C)C)ccc2c1)C1CCC2C3C(OCCCN)CC4CC(OCCCN)CCC4(C)C3CC(OCCCN)C12C` (stereo not drawn) [CSA-59], for which the “incorporation into vaccinia lipid envelope versus keratinocyte membrane” value in the series with vaccinia lipid envelope is reported as “preferentially incorporates into the vaccinia lipid envelope over the keratinocyte membrane with a high degree of selectivity”. The “% Viability” value is reported as 97.83% in the series with vaccinia virus [2] (5 μM); 66.31% with vaccinia virus [2] (10 μM); 26.09% in the series with vaccinia virus [2] (25 μM); 0.54% in the series with vaccinia virus [2] (50 μM); 0.00% in the series with vaccinia virus [2] (100 μM).
With `CCCCCCCCCCCCCCCCNCCCC(C)C1CCC2C3C(OCCCN)CC4CC(OCCCN)CCC4(C)C3CC(OCCCN)C12C.Cl.Cl.Cl.Cl` (stereo not drawn) [CSA-92], the “effectiveness” value in the series on vaccinia virus [2] was “most effective”. Moreover, the “% Viability” value in the series with vaccinia virus [2] (1 μM), in the series on vaccinia virus [2] (5 μM), in the series on vaccinia virus [2] (10 μM), with vaccinia virus [2] (25 μM), with vaccinia virus [2] (50 μM) and in the series with vaccinia virus [2] (100 μM) was 0.00% in each case.
`CC(CCCN)C1CCC2C3C(OCCCN)CC4CC(OCCCN)CCC4(C)C3CC(OCCCN)C12C` (stereo not drawn) [CSA-15]: the “% Viability” value in the series with vaccinia virus [2] (5 μM) is 98.88%; in the series on vaccinia virus [2] (10 μM) it was 93.68%; in the series on vaccinia virus [2] (25 μM), 101.49%; with vaccinia virus [2] (50 μM) it was 97.40%; in the series with vaccinia virus [2] (100 μM), 65.80%.
Taken in the same sequence, the figures for `CC(CCCOCCCN)C1CCC2C3C(OCCCN)CC4CC(OCCCN)CCC4(C)C3CC(OCCCN)C12C` (stereo not drawn) [CSA-25] were 97.40%, 74.35%, 66.91%, 39.41% and 10.04%.
For `CCCCCCCCN(CCCCCCCC)CCCC(C)C1CCC2C3C(OCCCN)CC4CC(OCCCN)CCC4(C)C3CC(OCCCN)C12C.Cl.Cl.Cl.Cl` (stereo not drawn) [CSA-91], in the series on vaccinia virus [2], the “effectiveness” value was “most effective”. The “% Viability” value came out at 10.31% with vaccinia virus [2] (1 μM); 0.00% in the series with vaccinia virus [2] (5 μM); 0.00% in the series with vaccinia virus [2] (10 μM); 0.00% with vaccinia virus [2] (25 μM); 0.00% in the series with vaccinia virus [2] (50 μM); 0.00% with vaccinia virus [2] (100 μM).
Regarding `CC(CCCOS(=O)(=O)O)C1CCC2C3C(OCCCN)CC4CC(OCCCN)CCC4(C)C3CC(OCCCN)C12C` (stereo not drawn) [CSA-21], the “% Viability” value was 100.00% with vaccinia virus [2] (5 μM); 71.76% in the series on vaccinia virus [2] (10 μM); 40.39% with vaccinia virus [2] (25 μM); 14.12% in the series on vaccinia virus [2] (50 μM); 4.31% in the series with vaccinia virus [2] (100 μM).
For orientation: viability means a read-out of living cells in per cent, often relative to untreated cells. A lower viability goes with a greater loss of cells. In the series on vaccinia virus [3], `CC(O)[C@H]1CC[C@H]2[C@@H]3[C@H](OCCCN)C[C@@H]4C[C@H](OCCCN)CC[C@]4(C)[C@H]3C[C@H](OCCCN)[C@]12C` (stereo partly drawn) [CSA-11] showed a viability at 5 µM of 84.2%, a viability at 10 µM of 92.9%, a viability at 25 µM of 100% and a viability at 50 µM of 97.3%. Further, in the series with vaccinia virus [3], the viability at 100 µM was 98.4%.
In the case of `CC(CCCNCCCNCCCN)C1CCC2C3C(OCCCN)CC4CC(OCCCN)CCC4(C)C3CC(OCCCN)C12C` (stereo not drawn) [CSA-54], the “effectiveness” value in the series on vaccinia virus [2] is “little or no detectable activity”. For the same compound, the “% Viability” value with vaccinia virus [2] (5 μM) was found to be 103.91%; in the series on vaccinia virus [2] (10 μM), 101.12%; in the series on vaccinia virus [2] (25 μM), 95.53%; in the series with vaccinia virus [2] (50 μM), 101.12%; in the series with vaccinia virus [2] (100 μM) it was 95.53%.
